Measurements reported in PMC12649549, “Sequence Permutation Generated Lysine and Tryptophan-Rich Antimicrobial Peptides with Enhanced Therapeutic Index” (Antibiotics, 2025).
Read-outs that look alike come from different tables or passages of the source.

Assays:
[1] = tested on: Both Gram-positive and -negative bacteria; assay: Geometric mean MIC, therapeutic index and fold changes of MIC, whole panel of strains; format: cell-based; details: for GM G−/+ (geometric mean of the MIC values): Both Gram-positive and -negative bacteria, MH broth, MIC >50 µg/mL counted as 100 µg/mL; for Therapeutic Index (TI) G−/+: HC10/GM, both Gram-positive and -negative bacteria; for weakening of antibacterial efficacy (MIC): LYM broth
How it was run: (§1)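 CLSI broth microdilution in Müller-Hinton broth and modified LYM broth (pH 7.4 base; NaCl, MgCl2 and pH varied), 5 × 10^5 CFU/mL inoculum, peptides 0.78–50 µg/mL final. TI = HC10 for human red blood cells divided by geometric mean MIC; three independent repeats.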

Gram-negative bacteria = assay: Geometric mean MIC and therapeutic index, Gram-negative bacteria; format: cell-based; details: Gram-negative bacteria; for GM G− (geometric mean of the MIC values): MH broth, MIC >50 µg/mL counted as 100 µg/mL; for Therapeutic Index (TI) G−: HC10/GM
How it was run: as §1

Gram-positive bacteria = assay: Geometric mean MIC and therapeutic index, Gram-positive bacteria; format: cell-based; details: Gram-positive bacteria; for GM G+ (geometric mean of the MIC values): MH broth, MIC >50 µg/mL counted as 100 µg/mL; for Therapeutic Index (TI) G+: HC10/GM
How it was run: as §1

S. aureus ATCC 33592 = tested on: S. aureus ATCC 33592
How it was run: (§2)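 Broth microdilution per CLSI in Müller-Hinton broth and modified LYM broth (pH 7.4; variants with 50–300 mM NaCl, 0.5–2.5 mM MgCl2, or pH 6.5–4.5). Inoculum 5 × 10^5 CFU/mL; peptides tested at 0.78–50 µg/mL final. MIC read; three independent repeats.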

[2] = tested on: Pseudomonas aeruginosa Migula (ATCC 27853)
How it was run: as §2

[3] = LYM broth, 0 mM NaCl, 16 h, 37 °C
[4] = LYM broth, 50 mM NaCl, 16 h, 37 °C
[5] = LYM broth, 100 mM NaCl, 16 h, 37 °C
[6] = LYM broth, 200 mM (NaCl), 16 h, 37 °C
[7] = LYM broth, 300 mM (NaCl), 16 h, 37 °C
[8] = MH broth, 5 × 10^5 CFU/mL, 16 h, 37 °C, repeated three times

Row | Substance | GM G−/+ (geometric mean of the MIC values) [1] [µg/mL] | Therapeutic Index (TI) G−/+ [1] | GM G− (geometric mean of the MIC values) (Gram-negative bacteria) [µg/mL] | Therapeutic Index (TI) G− (Gram-negative bacteria) | GM G+ (geometric mean of the MIC values) (Gram-positive bacteria) [µg/mL] | Therapeutic Index (TI) G+ (Gram-positive bacteria) | MIC (S. aureus ATCC 33592; [3]) [µg/mL] | MIC (S. aureus ATCC 33592; LYM broth, 0.5 mM MgCl2) [µg/mL] | MIC (S. aureus ATCC 33592; LYM broth, 1.5 mM MgCl2) [µg/mL] | MIC (S. aureus ATCC 33592; LYM broth, 2.5 mM MgCl2) [µg/mL] | MIC (S. aureus ATCC 33592; [4]) [µg/mL] | MIC (S. aureus ATCC 33592; [5]) [µg/mL] | MIC (S. aureus ATCC 33592; [6]) [µg/mL] | MIC (S. aureus ATCC 33592; [7]) [µg/mL] | MIC (S. aureus ATCC 33592; LYM broth, pH 4.5) [µg/mL] | MIC (S. aureus ATCC 33592; LYM broth, pH 5.5) [µg/mL] | MIC (S. aureus ATCC 33592; LYM broth, pH 6.5) [µg/mL] | MIC (S. aureus ATCC 33592; [8]) [µg/mL] | MIC [2, 3] [µg/mL] | MIC ([2]; LYM broth, 0.5 mM MgCl2) [µg/mL] | other results
1 | Ac-WLKWLAKKKKWRK-NH2 [Peptide W5K05] | 20.3 | 5.4 | 12.5 | 8.7 | 33.0 | 3.3 | 6.25 | 12.5 | 12.5 | 12.5 | 12.5 | 12.5 | 25 | 50 | 6.25 | 6.25 | 3.13 | 50 | 3.13 | 3.13 | MIC ([2]; LYM broth, 1.5 mM MgCl2): 3.13 µg/mL; MIC ([2]; LYM broth, 2.5 mM MgCl2): 6.25 µg/mL; MIC [2, 4]: 6.25 µg/mL; MIC [2, 5]: 12.5 µg/mL; MIC [2, 6]: >50 µg/mL; MIC [2, 7]: >50 µg/mL; MIC ([2]; LYM broth, pH 4.5): 1.56 µg/mL; MIC ([2]; LYM broth, pH 5.5): 1.56 µg/mL; MIC ([2]; LYM broth, pH 6.5): 1.56 µg/mL; MIC [2, 8]: 25 µg/mL
2 | Ac-AKKKKWRKWLKWL-NH2 [Peptide W5K10] | 5.4 | 20.0 | 3.1 | 34.8 | 9.5 | 11.5 | 3.13 | 3.13 | 3.13 | 3.13 | 6.25 | 6.25 | 12.5 | 25 | 3.13 | 3.13 | 3.13 | 12.5 | 3.13 | 3.13 | weakening of antibacterial efficacy (MIC) ([1]; 300 mM NaCl): up to 4 fold; MIC ([2]; LYM broth, 1.5 mM MgCl2): 3.13 µg/mL; MIC ([2]; LYM broth, 2.5 mM MgCl2): 6.25 µg/mL; MIC [2, 4]: 6.25 µg/mL; MIC [2, 5]: 6.25 µg/mL; MIC [2, 6]: 12.5 µg/mL; MIC [2, 7]: 25 µg/mL; MIC ([2]; LYM broth, pH 4.5): 3.13 µg/mL; MIC ([2]; LYM broth, pH 5.5): 3.13 µg/mL; MIC ([2]; LYM broth, pH 6.5): 1.56 µg/mL; MIC [2, 8]: 6.25 µg/mL
3 | Ac-KKWRKWLKWLAKK-NH2 [W5K/A9W] | 4.1 | 7.3 | 2.1 | 14.5 | 8.2 | 3.6 | 3.13 | 3.13 | 3.13 | 3.13 | 3.13 | 3.13 | 6.25 | 12.5 | 3.13 | 3.13 | 3.13 | 12.5 | 1.56 | 1.56 | weakening of antibacterial efficacy (MIC) ([1]; 300 mM NaCl): up to 4 fold; weakening of antibacterial efficacy (MIC) ([1]; MgCl2 rising above 0.5 mM): up to 2 fold; MIC ([2]; LYM broth, 1.5 mM MgCl2): 3.13 µg/mL; MIC ([2]; LYM broth, 2.5 mM MgCl2): 3.13 µg/mL; MIC [2, 4]: 1.56 µg/mL; MIC [2, 5]: 1.56 µg/mL; MIC [2, 6]: 3.13 µg/mL; MIC [2, 7]: 6.25 µg/mL; MIC ([2]; LYM broth, pH 4.5): 1.56 µg/mL; MIC ([2]; LYM broth, pH 5.5): 1.56 µg/mL; MIC ([2]; LYM broth, pH 6.5): 1.56 µg/mL; MIC [2, 8]: 3.13 µg/mL
4 | Ac-KKKWRKWLKWLAK-NH2 [Peptide W5K12] | 3.4 | 12.4 | 2.4 | 17.6 | 4.7 | 8.8 | 3.13 | 3.13 | 3.13 | 3.13 | 3.13 | 3.13 | 6.25 | 12.5 | 3.13 | 3.13 | 1.56 | 6.25 | 1.56 | 1.56 | weakening of antibacterial efficacy (MIC) ([1]; 300 mM NaCl): up to 4 fold; weakening of antibacterial efficacy (MIC) ([1]; MgCl2 rising above 0.5 mM): up to 2 fold; MIC ([2]; LYM broth, 1.5 mM MgCl2): 1.56 µg/mL; MIC ([2]; LYM broth, 2.5 mM MgCl2): 3.13 µg/mL; MIC [2, 4]: 1.56 µg/mL; MIC [2, 5]: 3.13 µg/mL; MIC [2, 6]: 6.25 µg/mL; MIC [2, 7]: 12.5 µg/mL; MIC ([2]; LYM broth, pH 4.5): 1.56 µg/mL; MIC ([2]; LYM broth, pH 5.5): 1.56 µg/mL; MIC ([2]; LYM broth, pH 6.5): 1.56 µg/mL; MIC [2, 8]: 3.13 µg/mL
